The values below come from publication PMC3760808, “A New Approach to Control the Enigmatic Activity of Aldose Reductase” (PLoS ONE, 2013).

The structures appear in SMILES notation.

In one test the test system is AR from bovine heart. Set-up: method as in PMID 8554593, PMID 9445372. The following applies: pH 6.0; cited from earlier work.
A further test has as its system AR from bovine lens. Set-up: method as in PMID 8554593, PMID 9445372. The following applies: pH 6.0; cited from earlier work.
For test [1], the system named is human placental recombinant AR. Set-up: method as in PMID 9890881, PMID 7599164. The following applies: human placental recombinant enzyme; cited from earlier work.
Another test relates to human skeletal muscle AR. Set-up: method as in PMID 9890881, PMID 7599164. The note with it: human skeletal muscle enzyme; cited from earlier work.
The next test concerns the target T1, bovine lens AR (Bos taurus, UniProt P16116).
T1 construct: AR was purified from bovine lens to electrophoretic homogeneity as described; from tissue; host or cells: bovine lens
Kind of test: Kinetic parameters of substrate reduction by AR (double reciprocal plots). It is filed as biochemical. The following applies: 8 mU purified AR, pH 6.8, 37°C. As for the experimental part: (§1) If not otherwise specified AR activity was determined at 37°C using 4.7 mM D, L-GAL as a substrate in 0.25 M sodium phosphate buffer pH 6.8 containing 0.38 M ammonium sulfate, 0.5 mM EDTA, and 0.2 mM NADPH. AR was purified from bovine lens to electrophoretic homogeneity as described. […] One unit of enzyme activity is the amount of enzyme that catalyzes the oxidation of 1 µmol of NADPH/min under the above-mentioned conditions. The k cat values were obtained on the basis of a molecular weight of AR of 34 KDa. The purified enzyme was stored at 4°C in a 10 mM sodium phosphate buffer pH 7.0 supplemented by 2 mM dithiothreitol and was extensively dialyzed against a 10 mM sodium phosphate buffer pH 7.0 before use.
(§2) The nominal concentrations of HNE and GS-HNE solutions used as substrates of AR were determined through a colorimetric assay. These values were confirmed by the total decrease in absorbance at 340 nm measured, in the presence of 0.2 mM NADPH, when HNE and GS-HNE were incubated in the presence of 8 and 150 mU of AR, respectively (Figure S1). When testing inhibitors that require DMSO to be solubilized, the same concentration of DMSO (0.7% v/v), was used in the assays both in the presence and absence of the inhibitors.
Figure 1 Double reciprocal plots for reduction of GAL, HNE and GS-HNE by bovine lens AR. Double reciprocal plots of initial rate measurements using of GAL (diamonds), HNE (squares) and GS-HNE (circles) as substrates. The assays were performed in standard conditions using 8 mU of purified AR. Error bars represent the standard deviations from at least three independent measurements.

In test [2] the target is T2, purified bovine lens AR (Bos taurus, UniProt P16116).
T2 construct: AR was purified from bovine lens to electrophoretic homogeneity as described; from tissue; host or cells: bovine lens
Kind of test: AR inhibition screening with GAL and HNE as substrates (differential inhibition). In kind it is biochemical. The following applies: for GAL/HNE differential inhibition (percentage inhibition with GAL minus percentage inhibition with HNE): 0.11 mM GAL vs 0.11 mM HNE, at inhibitor concentration giving 50% inhibition or maximal concentration tested; for inhibitory action on all the tested substrates (in words): substrates GAL, HNE, glucose (and GS-HNE), Figure 4. As for the experimental part:
as §1
The nominal concentrations of HNE and GS-HNE solutions used as substrates of AR were determined through a colorimetric assay. […] When testing inhibitors that require DMSO to be solubilized, the same concentration of DMSO (0.7% v/v), was used in the assays both in the presence and absence of the inhibitors.
Thus, the susceptibility of AR to the inhibition exerted by a series of compounds (including some well-known ARIs) was tested at various inhibitor concentrations, using both GAL and HNE as substrates. The results of this screening (Figure 2) are expressed as ”GAL/HNE differential inhibition”, i.e. the difference between the percentage inhibition observed using GAL as a substrate and the percentage inhibition observed using HNE as a substrate. This differential inhibition was calculated at the concentration of the inhibitor leading to 50% inhibition or, when 50% inhibition was not reached, at the maximal concentration tested.
Bars indicate the difference between the percentage inhibition observed using 0.11 mM GAL as substrate and the percentage inhibition using 0.11 mM HNE (differential inhibition). The difference was calculated at the concentration of the inhibitor leading to a 50% inhibition of the reaction more sensitive to the inhibitor (i.e. the reduction of GAL for compounds displaying a positive differential inhibition and the reduction HNE for compounds displaying a negative differential inhibition) or at the maximal concentration tested if 50% inhibition was not reached. […] Framed numbers (1 to 30) refer to the compounds tested as inhibitors.

Test [3] deals with T2, purified bovine lens AR. Kind of test: AR inhibition with GS-HNE as substrate. It is filed as biochemical. As for the experimental part: If not otherwise specified AR activity was determined at 37°C using 4.7 mM D, L-GAL as a substrate in 0.25 M sodium phosphate buffer pH 6.8 containing 0.38 M ammonium sulfate, 0.5 mM EDTA, and 0.2 mM NADPH. AR was purified from bovine lens to electrophoretic homogeneity as described. […] One unit of enzyme activity is the amount of enzyme that catalyzes the oxidation of 1 µmol of NADPH/min under the above-mentioned conditions. The k cat values were obtained on the basis of a molecular weight of AR of 34 KDa. […]
The nominal concentrations of HNE and GS-HNE solutions used as substrates of AR were determined through a colorimetric assay. These values were confirmed by the total decrease in absorbance at 340 nm measured, in the presence of 0.2 mM NADPH, when HNE and GS-HNE were incubated in the presence of 8 and 150 mU of AR, respectively (Figure S1). […]
Figure 3 Effect of D-glyceramide as differential AR inhibitor. Percentage residual activity was determined at various inhibitor concentrations using the following substrates: 0.11 mM of HNE (squares), GAL (diamonds), GS-HNE (circles) or 7 mM D-glucose (triangles). […]
Figure 5 Effect of compounds acting as differential AR inhibitors. Percentage residual activity was determined at various inhibitor concentrations using the following substrates: 0.11 mM HNE (squares), GAL (diamonds), GS-HNE (circles) or 7 mM D-glucose (triangles). […]

Test [4] deals with T2, purified bovine lens AR. Put plainly: AR inhibition with D-glucose as substrate. It is filed as biochemical. As for the experimental part: as §1, §2
Figure 3 Effect of D-glyceramide as differential AR inhibitor. Percentage residual activity was determined at various inhibitor concentrations using the following substrates: 0.11 mM of HNE (squares), GAL (diamonds), GS-HNE (circles) or 7 mM D-glucose (triangles). Error bars represent the standard deviations from at least three independent measurements.
Figure 5 Effect of compounds acting as differential AR inhibitors. Percentage residual activity was determined at various inhibitor concentrations using the following substrates: 0.11 mM HNE (squares), GAL (diamonds), GS-HNE (circles) or 7 mM D-glucose (triangles). Panels a and b refer to compounds 18 and 19, respectively. Error bars represent the standard deviations from at least three completely independent measurements including different enzyme preparations. […]

As usually defined, the Km is the substrate concentration at which the rate is half of its maximum. With `CCCCCC(O)/C=C/C=O` (stereo not drawn) [HNE, 4-hydroxy-2,3-nonenal], the Km in the test on AR from bovine heart was 7 ± 2 µM; in the test on AR from bovine lens, 8.8 ± 0.9 µM; in test [1], 28 ± 9 µM; in the test with human skeletal muscle AR it was 22 µM; at bovine lens AR, 37 ± 1 µM. In addition, at bovine lens AR, the k cat was determined as 0.8 ± 0.017 s⁻¹.
Regarding `O=C[C@@H](O)CO` [GAL, D, L-glyceraldehyde], at bovine lens AR, the Km was determined as 39 ± 4 µM and the k cat is 0.783 ± 0.05 s⁻¹.
Regarding `CCCCCC(O)C(CC=O)SC[C@H](NC(=O)CC[C@H](N)C(=O)O)C(=O)NCC(=O)O` (stereo partly drawn) [GS-HNE, 3-glutathionyl-4-hydroxy-nonanal], on bovine lens AR, the Km was 105 ± 6 µM and the k cat was 0.683 ± 0.033 s⁻¹.
In general, IC50 refers to the concentration at which inhibition is half-maximal. At purified bovine lens AR [2], `CC(/C=C1\SC(=S)N(CC(=O)O)C1=O)=C\c1ccccc1` [Compound 30, Epalrestat] yielded an IC50 of 0.0005 mM.
With `NC(=O)[C@H](O)CO` [Compound 21, D-Glyceramide], the IC50 at purified bovine lens AR [3] (0.11 mM GS-HNE as substrate, read-out: IC50, reduction of GS-HNE) is ~8 mM; on purified bovine lens AR [2] (GAL as substrate, read-out: IC50 with GAL as substrate) it was ~10 mM. Moreover, the “differential inhibition glucose/HNE (in words)” value at purified bovine lens AR [4] (7 mM D-glucose vs 0.11 mM HNE, Figure 3) was “observed only at rather high concentrations”.
Consider `O=C1NC(=O)[C@@]2(CCOc3ccc(F)cc32)N1` [Compound 29, Sorbinil], for which, at purified bovine lens AR [2], the “GAL/HNE differential inhibition (percentage inhibition with GAL minus percentage inhibition with HNE)” value is on record as “negligible” and the “inhibitory action on all the tested substrates (in words)” value is recorded as “potent inhibitory action on all the tested substrates”.
In the case of `NC(=O)[C@H](O)[C@@H](O)[C@H](O)[C@H](O)CO` [Compound 26, D gluconamide, reference compound], the “GAL/HNE differential inhibition (percentage inhibition with GAL minus percentage inhibition with HNE)” value at purified bovine lens AR [2] is listed as “significant”. Besides, the “effect on glucose reduction” value at purified bovine lens AR [4] (data not shown) is “no effect”.
Turning to `O=C(O)c1cn(Cc2ccccc2)c2ccnn2c1=O` [Compound 18], the “inhibition of the AR catalyzed reduction of GS-HNE (in words)” value on purified bovine lens AR [3] (0.11 mM GS-HNE, Figure 5) is “able to inhibit, to a different extent”. For the same molecule, the “type of inhibition, glucose reduction” value at purified bovine lens AR [4] (47 µM inhibitor, double reciprocal plots) is “competitive inhibition”.
Regarding `O=c1cc(-c2ccccc2)nc2cccc(O)n12` [Compound 3], on purified bovine lens AR [2], the “inhibitory action on all the tested substrates (in words)” value is given as “inhibits the AR catalyzed reduction of all the tested substrates”.
